Converted amounts (≈) assume the structure as drawn.
Tested on: Burkholderia cenocepacia BC240 (Cystic fibrosis isolate, MDR)
Assay: MIC assay BC240
Type: cell-based

Structure (SMILES) | MIC BC240 (Table 5) | MIC BC240 (Table 6) | MIC BC240 (Table 7) | MIC BC240 (control compounds, numeric)
CN(C)[C@@H]1C(O)=C(C(N)=O)C(=O)[C@@]2(O)C(O)=C3C(=O)c4c(O)cccc4C[C@H]3C[C@@H]12 [Sancycline, sancycline] | 4 µg/mL (≈ 9.65 µM) | 4 µg/mL (≈ 9.65 µM) | 4 µg/mL (≈ 9.65 µM) | 4 µg/mL (≈ 9.65 µM)
CN(C)c1cc(NC(=O)CNC(C)(C)C)c(O)c2c1C[C@H]1C[C@H]3[C@H](N(C)C)C(O)=C(C(N)=O)C(=O)[C@@]3(O)C(O)=C1C2=O [Tigecycline, tigecycline] | 16 µg/mL (≈ 27.3 µM) | 16 µg/mL (≈ 27.3 µM) | 16 µg/mL (≈ 27.3 µM) | 16 µg/mL (≈ 27.3 µM)
